Assay results from patent US20050032754A1, “5,6-Trans-2-alkylvitamin D derivatives” (Hiroaki TAKAYAMA, priority 2000, published 2005).

Biological target: T1, Bovine thymus 1α,25-dihydroxyvitamin D3 receptor (VDR) (Bos taurus, UniProt Q28037)
T1 sequence (Q28037 1-426): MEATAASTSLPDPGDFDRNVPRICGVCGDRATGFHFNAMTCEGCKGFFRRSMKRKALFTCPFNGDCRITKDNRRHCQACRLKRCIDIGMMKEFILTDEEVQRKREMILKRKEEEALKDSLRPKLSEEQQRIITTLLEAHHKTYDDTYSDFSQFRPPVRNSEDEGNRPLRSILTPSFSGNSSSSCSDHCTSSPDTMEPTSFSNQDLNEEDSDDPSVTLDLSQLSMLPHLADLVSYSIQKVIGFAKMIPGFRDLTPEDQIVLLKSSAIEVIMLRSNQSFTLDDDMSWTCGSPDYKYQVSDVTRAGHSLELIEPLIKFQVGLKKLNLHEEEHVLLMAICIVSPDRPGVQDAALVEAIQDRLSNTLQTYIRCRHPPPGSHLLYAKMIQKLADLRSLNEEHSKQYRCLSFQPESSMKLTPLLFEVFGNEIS
Conditions: relative value, 1α,25-dihydroxyvitamin D3 taken as 100; X=(y/x)×100 from concentrations inhibiting 50% of [3H]-1α,25-dihydroxyvitamin D3 binding (0.1 nM) to VDR

Row | SMILES | VDR binding property
1 | C=C1/C(=C/C=C2\CCCC3(C)C2CCC3[C@H](C)CCCC(C)(C)O)C[C@H](O)[C@@H](C)[C@@H]1O (stereo partly drawn) [Example 5, (5E,7E)-(1S,2R,3S)-2-methyl-9,10-seco-5,7,10(19)-cholestatriene-1,3,25-triol] | 0.04
2 | C=C1/C(=C/C=C2\CCCC3(C)C2CCC3[C@H](C)CCCC(C)(C)O)C[C@@H](O)[C@H](C)[C@@H]1O (stereo partly drawn) [Example 2, (5E,7E)-(1S,2S,3R)-2-methyl-9,10-seco-5,7,10(19)-cholestatriene-1,3,25-triol] | 0.4
3 | C=C1/C(=C/C=C2\CCC[C@]3(C)[C@@H]([C@H](C)CCCC(C)(C)O)CC[C@@H]23)C[C@@H](O)[C@@H](C)[C@H]1O [Example 3, (5E,7E)-(1R,2R,3R)-2-methyl-9,10-seco-5,7,10(19)-cholestatriene-1,3,25-triol] | 0.1
4 | C=C1/C(=C/C=C2\CCCC3(C)C2CCC3[C@@H](C)CCCC(C)(C)O)C[C@H](O)[C@H](C)[C@@H]1O (stereo partly drawn) [Example 14, (5E,7E)-(1S,2S,3S,20S)-2-methyl-9,10-seco-5,7,10(19)-cholestatriene-1,3,25-triol] | 0.2
5 | C=C1/C(=C/C=C2\CCCC3(C)C2CCC3[C@@H](C)CCCC(C)(C)O)C[C@H](O)[C@@H](C)[C@H]1O (stereo partly drawn) [Example 15, (5E,7E)-(1R,2R,3S,20S)-2-methyl-9,10-seco-5,7,10(19)-cholestatriene-1,3,25-triol] | 0.2
6 | C=C1/C(=C/C=C2\CCCC3(C)C2CCC3[C@H](C)CCCC(C)(C)O)C[C@@H](O)[C@@H](C)[C@@H]1O (stereo partly drawn) [Example 1, (5E,7E)-(1S,2R,3R)-2-methyl-9,10-seco-5,7,10(19)-cholestatriene-1,3,25-triol] | 8.6
7 | C=C1C(=CC=C2CCCC3(C)C2CCC3C(C)CCCC(C)(C)O)CC(O)C(C)C1O [Example 11, (5E,7E)-(1R,2R,3R,20S)-2-methyl-9,10-seco-5,7,10(19)-cholestatriene-1,3,25-triol] | 0.8
8 | C=C1C(=CC=C2CCCC3(C)C2CCC3C(C)CCCC(C)(C)O)CC(O)C(C)C1O [Example 4, (5E,7E)-(1R,2S,3R)-2-methyl-9,10-seco-5,7,10(19)-cholestatriene-1,3,25-triol] | < 0.01

Second part, the compound after the results:

Row | VDR binding property | SMILES
9 | < 0.01 | C=C1/C(=C/C=C2\CCCC3(C)C2CCC3[C@H](C)CCCC(C)(C)O)C[C@H](O)[C@H](C)[C@H]1O (stereo partly drawn) [Example 8, (5E,7E)-(1R,2S,3S)-2-methyl-9,10-seco-5,7,10(19)-cholestatriene-1,3,25-triol]
10 | 0.08 | C=C1/C(=C/C=C2\CCCC3(C)C2CCC3[C@@H](C)CCCC(C)(C)O)C[C@H](O)[C@H](C)[C@H]1O (stereo partly drawn) [Example 16, (5E,7E)-(1R,2S,3S,20S)-2-methyl-9,10-seco-5,7,10(19)-cholestatriene-1,3,25-triol]
11 | 45 | C=C1/C(=C/C=C2\CCCC3(C)C2CCC3[C@@H](C)CCCC(C)(C)O)C[C@@H](O)[C@@H](C)[C@@H]1O (stereo partly drawn) [Example 9, (5E,7E)-(1S,2R,3R,20S)-2-methyl-9,10-seco-5,7,10(19)-cholestatriene-1,3,25-triol]
12 | 0.03 | C=C1/C(=C/C=C2\CCCC3(C)C2CCC3[C@H](C)CCCC(C)(C)O)C[C@H](O)[C@@H](C)[C@H]1O (stereo partly drawn) [Example 7, (5E,7E)-(1R,2R,3S)-2-methyl-9,10-seco-5,7,10(19)-cholestatriene-1,3,25-triol]
13 | 0.5 | C=C1/C(=C/C=C2\CCCC3(C)C2CCC3[C@@H](C)CCCC(C)(C)O)C[C@H](O)[C@@H](C)[C@@H]1O (stereo partly drawn) [Example 13, (5E,7E)-(1S,2R,3S,20S)-2-methyl-9,10-seco-5,7,10(19)-cholestatriene-1,3,25-triol]
14 | 0.013 | C=C1/C(=C/C=C2\CCCC3(C)C2CCC3[C@H](C)CCCC(C)(C)O)C[C@H](O)[C@H](C)[C@@H]1O (stereo partly drawn) [Example 6, (5E,7E)-(1S,2S,3S)-2-methyl-9,10-seco-5,7,10(19)-cholestatriene-1,3,25-triol]
15 | 0.03 | C=C1/C(=C/C=C2\CCCC3(C)C2CCC3[C@@H](C)CCCC(C)(C)O)C[C@@H](O)[C@H](C)[C@H]1O (stereo partly drawn) [Example 12, (5E,7E)-(1R,2S,3R,20S)-2-methyl-9,10-seco-5,7,10(19)-cholestatriene-1,3,25-triol]
16 | 1 | C=C1/C(=C/C=C2\CCCC3(C)C2CCC3[C@@H](C)CCCC(C)(C)O)C[C@@H](O)[C@H](C)[C@@H]1O (stereo partly drawn) [Example 10, (5E,7E)-(1S,2S,3R,20S)-2-methyl-9,10-seco-5,7,10(19)-cholestatriene-1,3,25-triol]
